Data as given in PMC6277767, “Broad and Region-Specific Impacts of the Synthetic Cannabinoid CP 55,940 in Adolescent and Adult Female Mouse Brains” (Frontiers in Molecular Neuroscience, 2018).

Test: CP 55,940 levels in eight brain regions 2 h after single i.p. 3 mg/kg injection (HPLC/MS/MS)
Type: in vivo, mouse
Settings: for CP 55,940 level: 3mg/kg CP 55,940, mean
Procedure: The Bloomington Institutional Animal Care and Use Committee of Indiana University reviewed and approved the animal procedures. Female mice from the CD1 strain were utilized to match our study examining THC’s effects on the brain lipidome ([Leishman et al., 2018]). Mice were given a single i.p. injection of either 3 mg/kg CP or 1:1:18 cremophor:ethanol:saline vehicle (please refer to the section “3 mg/kg CP Is Relevant for Synthetic Cannabinoid Abuse and Has Stronger Effects on the Female Mouse Brain Lipidome During Adolescence” for a justification of dose and use of female mice). Three different age groups were given injections: PND 35 and PND 50 adolescents, and adult mice (PND 113). At least eight mice in each age group received CP and at least eight received vehicle. Matching the THC study time course ([Leishman et al., 2018]), mice were sacrificed via rapid decapitation 2 h after injection. Brains were immediately removed and flash-frozen in liquid nitrogen, and then stored at -80°C until dissections were performed. Brains were dissected on an ice-cold dissection plate into the following regions: STR, HIPP, CER, THAL, CTX, HYP, MID, and STEM. These abbreviations for these brain areas will be used exclusively when discussing the results generated by these specific dissections. Each dissected area was immediately placed in liquid nitrogen and then stored at -80°C until used for lipid extraction.
Tissue extracts were performed as previously described ([Bradshaw et al., 2006]; [Stuart et al., 2013]; [Raboune et al., 2014]; [Leishman et al., 2016a],[b], [2017], [2018]). First, samples were shock frozen in liquid nitrogen, weighed, and transferred to a centrifuge tube. The mass of the largest sample was multiplied by 50 to determine how many milliliters of HPLC-grade methanol (Fisher, Fair Lawn, NJ, United States) to add. Then, samples were spiked with 500 pmol deuterium-labeled NAGly (d8NAGly; Cayman Chemical, Ann Arbor, MI, United States). Samples were placed on ice in darkness for 2 h then individually homogenized and centrifuged at 19,000 × g for 20 min at 20°C. Supernatants were diluted with HPLC water (purified in house) to make a solution of 75% water, 25% supernatant. Lipids were partially purified on C18 solid phase extraction columns (Agilent, Palo Alto, CA, United States). A series of four elutions with 1.5 mL of 60%, 75%, 85%, and 100% methanol were collected ([Stuart et al., 2013]; [Leishman et al., 2016a],[b], [2018]).
As previously described ([Bradshaw et al., 2006]; [Tan et al., 2006]; [Smoum et al., 2010]; [Stuart et al., 2013]; [Tortoriello et al., 2013]; [Raboune et al., 2014]; [Leishman et al., 2016a],[b], [2017], [2018]), samples were analyzed using an Applied Biosystems API 3000 triple quadrupole mass spectrometer with electrospray ionization (Foster City, CA, United States). Using an Agilent XDB-C18 reversed phase analytical column and optimized mobile phase gradients, 20 μL from each elution were chromatographed. Two Shimadzu 10ADvp pumps (Columbia, MD, United States) provided the pressure for gradient elution. Mobile phase A: 20% methanol, 80% water (v/v) and 1 mM ammonium acetate (Sigma, St. Louis, MO, United States). Mobile phase B: 100% methanol, 1 mM ammonium acetate. Every method run began with 0% mobile phase B, reached 100% mobile phase B flowing at 0.2 mL/min, and gradually returned to 0% mobile phase B.
This screening library will be referred to as the lipidome when discussing data from this study. HPLC/MS/MS data were analyzed using Analyst software (Applied Biosystems) ([Bradshaw et al., 2006]; [Tan et al., 2006]; [Stuart et al., 2013]; [Tortoriello et al., 2013]; [Raboune et al., 2014]; [Leishman et al., 2016a],[b], [2017], [2018]). Chromatograms (Supplementary Figure 3) were generated by determining the retention time of analytes from the analytical column with a [M-1] or [M+1] parent peak and a fragmentation peak corresponding to the programmed values. […]

[1] = brainstem, PND 50, 3 mg/kg CP 55,940, one-way ANOVA p .000
[2] = cerebellum, PND 50, 3 mg/kg CP 55,940
[3] = cerebellum, adult, 3 mg/kg CP 55,940
[4] = cerebellum, PND 35, 3 mg/kg CP 55,940
[5] = cortex, PND 35, 3 mg/kg CP 55,940
[6] = hippocampus, PND 50, 3 mg/kg CP 55,940 vs Veh
[7] = hippocampus, adult, 3 mg/kg CP 55,940
[8] = hippocampus, PND 35, 3 mg/kg CP 55,940 vs vehicle
[9] = striatum, PND 50, 3mg/kg CP 55,940 vs Veh
[10] = striatum, adult, 3 mg/kg CP 55,940, one-way ANOVA p .000
[11] = striatum, PND 35, 3mg/kg CP 55,940
[12] = thalamus, PND 50, 3 mg/kg CP 55,940
[13] = thalamus, adult, 3 mg/kg CP 55,940
[14] = thalamus, PND 35, 3 mg/kg CP 55,940

Structure (SMILES): CCCCCCC(C)(C)c1ccc([C@@H]2C[C@H](O)CC[C@H]2CCCO)c(O)c1 [CP 55,940]
- CP 55,940 level, Mean (brainstem, PND 50, 3 mg/kg CP 55,940): 8.2E-11
- CP 55,940 level, Direction (relative to Veh) [1]: ↑
- CP 55,940 level, Magnitude (x Veh level) [1]: infinite
- CP 55,940 level: Direction (relative to Veh) [2]: ↑
- CP 55,940 level: Magnitude (x Veh level) [2]: infinite
- CP 55,940 level, Mean (cerebellum, PND 50 female mice, 3 mg/kg CP 55,940): 7.57E-11
- CP 55,940 level, Mean (cerebellum, WT adult female mice, 3mg/kg CP 55,940): 2.8E-10
- CP 55,940 level: Direction (relative to Veh) [3]: ↑
- CP 55,940 level: Magnitude (x Veh level) [3]: infinite
- CP 55,940 level: Direction (relative to Veh) [4]: ↑
- CP 55,940 level: Magnitude (x Veh level) [4]: infinite
- CP 55,940 level, Mean (cerebellum, PND35 WT female mice, 3mg/kg CP 55,940): 7.22E-11
- CP 55,940 level, Direction (relative to Veh) (cortex, PND 50, 3 mg/kg CP 55,940): ↑
- CP 55,940 level, Magnitude (x Veh level) (cortex, PND 50, 3 mg/kg CP 55,940, ANOVA p .000): infinite
- CP 55,940 level, Mean (cortex, PND 50 female mice, 3mg/kg CP 55,940): 8.61E-11
- CP 55,940 level Direction (rel to Veh) [5]: ↑
- CP 55,940 level, Magnitude (x Veh level) [5]: infinite
- CP 55,940 level, Mean (cortex, PND 35 adolescent female mice, 3 mg/kg CP 55,940): 1.11E-10
- CP 55,940 level, Direction (relative to Veh) [6]: ↑
- CP 55,940 level, Magnitude (x Veh level) [6]: infinite
- CP 55,940 level (hippocampus, PND 50 female mice): 1.23E-10
- CP 55,940 level, Mean [7]: 2.68E-10
- CP 55,940 level: Direction (relative to Veh) [7]: ↑
- CP 55,940 level: Magnitude (x Veh level) [7]: infinite
- CP 55,940 level: Direction [8]: ↑
- CP 55,940 level: Magnitude [8]: infinite
- CP 55,940 level, Mean (hippocampus, PND 35 WT female mice, 3mg/kg CP 55,940): 9.63E-11
- CP 55,940 level, Direction (relative to Veh) (hypothalamus, PND 50, 3mg/kg CP 55,940): ↑
- CP 55,940 level, Magnitude (x Veh level) (hypothalamus, PND 50, 3mg/kg CP 55,940, ANOVA p .000): infinite
- CP 55,940 level, Mean (hypothalamus, PND 50 female mice, 3mg/kg CP 55,940): 4.38E-11
- CP 55,940 level, Mean (hypothalamus, PND 35 adolescent female mice, 3 mg/kg): 5.31E-11
- CP 55,940 level, Direction (relative to Veh) (midbrain, PND 50, 3mg/kg CP 55,940): ↑
- CP 55,940 level, Magnitude (x Veh level) (midbrain, PND 50, 3mg/kg CP 55,940, ANOVA p .000): infinite
- CP 55,940 level, Mean (midbrain, PND 50 female mice, 3mg/kg CP 55,940): 1.21E-10
- CP 55,940 level, Mean (midbrain, PND 35 WT adolescent female mice, 3 mg/kg): 7.91E-11
- CP 55,940 level, Direction (relative to Veh) [9]: ↑
- CP 55,940 level, Magnitude (x Veh level) [9]: infinite
- CP 55,940 level (striatum, PND 50 female mice): 5.87E-11
- CP 55,940 level, Mean (striatum, adult, 3 mg/kg CP 55,940): 2.08E-10
- CP 55,940 level, Direction (relative to Veh) [10]: ↑
- CP 55,940 level, Magnitude (x Veh level) [10]: infinite
- CP 55,940 level: Direction (relative to Veh) [11]: ↑
- CP 55,940 level: Magnitude (x Veh level) [11]: infinite
- CP 55,940 level: Direction (relative to Veh) [12]: ↑
- CP 55,940 level: Magnitude (x Veh level) [12]: infinite
- CP 55,940 level, Mean (thalamus, PND 50 female mice, 3 mg/kg CP 55,940): 9.93E-11
- CP 55,940 level, Mean (thalamus, WT adult female mice, 3mg/kg CP 55,940): 2E-10
- CP 55,940 level: Direction (relative to Veh) [13]: ↑
- CP 55,940 level: Magnitude (x Veh level) [13]: infinite
- CP 55,940 level, Direction (relative to Veh) [14]: ↑
- CP 55,940 level, Magnitude (x Veh level) [14]: infinite
- CP 55,940 level, Mean (thalamus, PND 35 adolescent female mice, 3 mg/kg CP 55,940): 8.87E-11
